Source: publication PMC11242853, “The Antimicrobial Activity of Human Defensins at Physiological Non-Permeabilizing Concentrations Is Caused by the Inhibition of the Plasma Membrane H^+-ATPases” (International Journal of Molecular Sciences, 2024)

How the values were obtained:
[1] = system: Pseudomonas aeruginosa PAO1; experiment: Antimicrobial spread-plate (CFU) killing assay, P. aeruginosa; assay type: cell-based
Experimental: (§1) To determine whether the above microbicidal concentrations exert a permeabilizing effect on fungal and bacterial membranes, the influx of the fluorescent nucleic acid-binding dye propidium iodide (PI) in cells incubated with the peptides was assessed. In cells, dye uptake reflects membrane permeabilization, as PI itself cannot permeate through an intact phospholipid bilayer. […] To select an antimicrobial but non-permeabilizing concentration of each peptide for further assays, we defined as a non-permeabilizing inhibitory concentration (NPIC) the antimicrobial inhibitory concentration (≤10% viable cells) that permeabilized ≤ 10% of cells incubated (90 min at 37 °C) in buffer solution.
(§2) Microbial susceptibility to the peptides was determined in a spread-plate assay as described previously. Briefly, cell suspensions (10^6 cells/mL) in Tris buffer (10 mM Tris-HCl, pH 7.4) were incubated for 90 min at 37 °C with 2-fold serial peptide dilutions. Peptide concentrations ranged from 0 to 2 μM. After incubation, the number of viable cells was determined by plating aliquots (100 μL) in duplicate on plates (SDA for C. albicans, TSA for P. aeruginosa, and M17G agarified medium for L. lactis) that had been dried for 30 min at room temperature in a laminar flow hood. Plates were incubated for 24–48 h at 30 °C (C. albicans and L. lactis) or 24 h at 37 °C (P. aeruginosa). Dilutions yielding 50–200 colonies were counted. Cell viability values, expressed as colony-forming units (CFUs), were calculated relative to the incubation without added peptides and represent the means ± standard deviation (SD) from duplicates of three independent experiments. For inhibition assays, unless otherwise noted, cell suspensions were preincubated (15 min at 37 °C) with the appropriate inhibitor prior to the addition of peptides, but the inhibitor was present throughout the incubation period with the peptide (90 min at 37 °C). Other specific experimental conditions are described as appropriate. In some experiments, the concentrations of human lactoferrin against C. albicans (5 μM), P. aeruginosa (1 μM), and L. lactis (0.065 μM) were used in the control assays. In various viability assays, BM2 peptide (0.25 μM), CCCP (50 μM), colistin (4 μg/mL), nystatin (50 μM), oligomycin A (16 μg/mL), piericidin A (32 μM), and TEA (10 mM) were used.

C. albicans cells [2] = experiment: Oxygen consumption measurement (polarographic), C. albicans; assay type: cell-based, Candida albicans; details: after 30 min; defensins 2 x NPIC, human lactoferrin 20 μM, piericidin A 32 µM; preincubated 15 min at 37 °C; untreated cells 94% ± 2%; means ± SD, three experiments
Experimental: (§3) Oxygen consumption by C. albicans and P. aeruginosa cells was determined by polarographically using a biological oxygen monitor (dual digital-model 20; Rank Brothers Ltd., Cambridge, UK) at 25 °C. The apparatus consisted of a twin water-jacketed closed sample chamber, which enabled a control experiment to be conducted concurrently. The cells were grown to mid-log phase in SDB (C. albicans) or TSB (P. aeruginosa), washed twice in Tris buffer, and resuspended in the same buffer. Cell suspensions (approximately 10^7 cells/mL) were preincubated with defensins (2 x NPIC), human lactoferrin (20 μM), or piericidin A (32 μM) for 15 min at 37 °C. Oxygen consumption was recorded at 5-min intervals for a period of 30 min. Three independent experiments were performed, and the data are means ± SD.

P. aeruginosa cells = experiment: Oxygen consumption measurement (polarographic), P. aeruginosa; assay type: cell-based, Pseudomonas aeruginosa; details: after 30 min; defensins 2 x NPIC, human lactoferrin 20 μM, piericidin A 32 µM; preincubated 15 min at 37 °C; untreated cells 83% ± 2%; means ± SD, three experiments
Experimental: as §3

[3] = system: Candida albicans ATCC 10231; experiment: Antimicrobial spread-plate (CFU) killing assay, C. albicans; assay type: cell-based; details: for effect of high extracellular K+ on candidacidal activity: 50 mM KCl, defensins at NPIC, hLf 5 μM, BM2 0.25 μM, nystatin 50 μM; for effect of Tok1p inhibition (TEA) on candidacidal activity: preincubation 15 min at 37 °C with 10 mM TEA+
Experimental: as §1, §2

C. albicans cells [4] = experiment: Extracellular potassium measurement (K+-efflux, ICP-MS); assay type: cell-based, Candida albicans
Experimental: Potassium measurements were performed via inductively coupled plasma mass spectrometry using an Agilent 7700x ICP-MS (Agilent Technologies, Santa Clara, CA, USA). C. albicans cells were cultured in SDB for 16–20 h at 30 °C. The cells were then subcultured in the same media to the mid-logarithmic growth phase and rapidly washed in sterile, deionized, double-distilled water. The cells (10^7 cells/mL) were immediately incubated with the peptides (NPIC) for 90 min at 37 °C. The tubes were centrifuged at 1100× g for 10 min and the supernatants were collected and stored at 4 °C until analysis. The percentage of cytosolic potassium released from cell suspensions treated with nystatin (50 μM) was determined in positive control assays. Total cellular K^+-content (100% value) was measured in the supernatant of cell suspensions previously treated with 0.5% (v/v) HClO4 alone, heated for 1 h at 95 °C, and centrifuged to remove cell debris. Results are expressed as the percentage (means ± SD) of K^+-release relative to the total cellular K^+-content from duplicates of at least three independent assays.

C. albicans cells [5] = experiment: Total cellular ATP (BacTiter-Glo); assay type: cell-based, Candida albicans; details: defensins at NPIC, human lactoferrin 5 μM, BM2 peptide 0.25 μM; 10^6 cells/mL; BacTiter-Glo luminescence
Experimental: Total ATP was measured using the BacTiter-Glo^TM Microbial Cell Viability Assay (Promega Co., Madison, WI, USA) according to the manufacturer’s instructions. […] Aliquots (100 µL) were incubated (90 min at 37 °C) with human defensins (NPICs). Human lactoferrin (5 μM) or BM2 peptide (0.25 μM) was used as positive controls. One hundred microliters of the incubation mixture was transferred to an opaque 96-well plate, mixed with an equal volume of BacTiter-Glo^TM reagent, and incubated for 15 min in the dark. The reagent uses a thermostable luciferase to generate luminescence in an ATP-dependent manner. The emitted luminescence was detected using a Varioskan Flash multimode reader (Thermo Scientific, Waltham, MA, USA) with a 10 s shaking and 1 s integration time. A calibration curve was generated for each experiment with ATP standards ranging from 1 to 1000 nM. All assays were performed at least three times in duplicate.

C. albicans cells [6] = experiment: Membrane potential monitoring with DiBAC4(3), flow cytometry; assay type: cell-based, Candida albicans; details: peptides at NPIC, hLf 5 μM, BM2 0.25 μM; DiBAC4(3) 1 µg/mL
Experimental: The membrane potential-sensitive probe DiBAC4(3) was used to monitor the transmembrane electrical potential of C. albicans cells as previously described with slight modifications. Briefly, cells were harvested from mid-log phase cultures via centrifugation and suspended in Tris buffer. The cell suspension was adjusted to 10^6 cells/mL and then incubated with DiBAC4(3) at a final concentration of 1 µg/mL for 30 min. Fluorescence was measured using a CytoFLEX S flow cytometer (Beckman Coulter) with excitation at 561 nm and emission at 690/50 nm. For each treatment, 5000 events were counted per experiment with an exposure time of 1000 ms. Results were analyzed using CytExpert 2.1 Acquisition software. As positive controls, human lactoferrin and BM2 peptide were used. Three independent experiments were performed and data are expressed as means ± SD.

N#CC(C#N)=NNc1cccc(Cl)c1 [CCCP, carbonyl cyanide m-chlorophenylhydrazone, reference compound]
viability of P. aeruginosa with CCCP alone, acidic extracellular pH ([1]; 50 µM CCCP, pH of 5.5 and 6.5): decreased
viability of P. aeruginosa with CCCP alone, alkaline pH ([1]; 50 µM CCCP, pH of 7.4, 7.7, and 8.0): not significantly altered

C/C=C(\C)[C@H](O)[C@H](C)/C=C(C)/C=C/C/C(C)=C/Cc1nc(OC)c(OC)c(O)c1C [piericidin A, reference compound]
oxygen consumption percentage of C. albicans (C. albicans cells [2]): 20% ± 3%
O2 consumption of P. aeruginosa (P. aeruginosa cells): 17% ± 3%

C[C@@H]1[C@H](O)[C@@H](C)/C=C/C=C/CC/C=C/C=C/C=C/C=C/C(O[C@H]2O[C@H](C)[C@@H](O)[C@H](N)[C@@H]2O)CC2O[C@](O)(CC(O)C(O)CCC(O)CC(O)CC(O)CC(=O)O[C@H]1C)CC(O)C2C(=O)O (stereo partly drawn) [nystatin, reference compound]
effect of high extracellular K+ on candidacidal activity [3]: no effect
effect of Tok1p inhibition (TEA) on candidacidal activity ([3]; peptides at NPIC): not altered
K^+-release from yeast cells (C. albicans cells [4]; nystatin 50 μM, 90 min, 37 °C, relative to total cellular K+-content (100%), ICP-MS): 70–85%

D-NH2-RRRFWWFRRR-CONH2 [BM2 peptide, positive control, reference compound]
increase in ATP levels compared to the untreated control (C. albicans cells [5]): ~ 9 fold
transmembrane electrical potential (DiBAC4(3) fluorescence) (C. albicans cells [6]): increase in DiBAC4(3) fluorescence
effect of high extracellular K+ on candidacidal activity [3]: significantly decreased
effect of piericidin A on candidacidal activity ([3]; cells preincubated 15 min at 37 °C with 32 µM piericidin A, then peptides (NPIC) 90 min): significantly (p < 0.001) inhibited
effect of oligomycin A on candidacidal activity ([3]; preincubated 15 min at 37 °C with 16 μg/mL oligomycin A, peptides at NPIC): significantly reduced
effect of Tok1p inhibition (TEA) on candidacidal activity ([3]; peptides at NPIC): reduced
K^+-efflux pattern in C. albicans (C. albicans cells [4]; peptides at NPIC / microbicidal concentrations, 10^7 cells/mL, 90 min at 37 °C, steady state compared with maximum intracellular K+ of untreated cells): partial K^+-efflux

colistin (polymyxin E) [reference compound]
effect of high extracellular K+ on pseudomonacidal activity ([1]; 50 mM KCl, defensins at NPIC, hLf 1 μM, colistin 4 μg/mL): no effect
